Data reported in article PMC10870261, “Photoinduced Hydrogel-Forming Caged Peptides with Improved Solubility” (ACS Omega, 2024).
Residues, ends and D or L forms follow the SMILES beside them. *: point of attachment. X1 = O=C(COC(=O)*)c1ccc(O)cc1

Columns and labels:
[1] = tested on: A2058 human melanoma cell line; test: CellTiterGlo viability assay, cells in 2D monolayer or in peptide hydrogel (3D); format: cell-based; conditions: HPAA 1 mM, 96 h, normalized to 2D control, n = 3
Protocol: Human melanoma cell line A2058 was obtained from the European Collection of Authenticated Cell Cultures (ECACC, Salisbury, UK) and was cultured in RPMI 1640 medium supplemented with 10% (v/v %) fetal bovine serum (Biosera Europe, Nuaillé, France), 1% L-glutamine, and 1% penicillin/streptomycin (Gibco, Invitrogen Corporation, New York, USA). Cells were propagated in standard cell culture conditions (37 °C, 5% CO2).
Peptides were dissolved in PBS (1×) at a 1.2 mM concentration. 50–50 μL of the resulting stock solution was added to a 96-well, optical bottom plate. […]
Viability tests were performed using CellTiterGlo (Promega, Madison, WI, USA) reagent to determine the quantity of viable cells in both 2D setups and in hydrogels. […] The luminescence signal was measured by a Fluoroskan FL microplate fluorometer and luminometer (Thermo Scientific, Waltham, MA, USA). […] All quantitative data are presented as the mean ± standard deviation (SD). The results were evaluated with MS Excel and OriginPro 2020 software (OriginLab Corporation, Northampton, MA, USA).
Results were evaluated using MS Excel and OriginPro 2020 software (OriginLab Corp., Northampton, MA, USA). […] Data were statistically analyzed using one-way analysis of variance followed by Tukey’s posthoc test. […]

[2] = Optical transmittance (turbidity) in PBS; format: physicochemical; conditions: 300 μM in PBS (pH 7.4, 1×), 25 °C, 532 nm, after the starting point
Protocol: Transmittance was measured using an UV–vis spectrophotometer (Jasco V-650, Jasco, Cremella, Italy) in phosphate-buffered saline (PBS, pH 7.4, 1×) buffer.  Figure 1 Optical transmittance of native (nonprotected) EAK16-II peptide and caged-EAK16-II (300 μM) in PBS, 25 °C, 532 nm, 8 h. […] These turbidity measurements were conducted at a 300 μM concentration, which was also used for in vitro experiments.

[3] = tested on: A2058 human melanoma cell line; test: Fluorescence microscopy of cellular arrangement in hydrogels (acridine orange); format: cell-based; conditions: A2058 cells, 96 h, acridine orange 0.1 mM, 10× magnification, Z-stacks
Protocol: Peptides were dissolved in PBS (1×) at a 1.2 mM concentration. 50–50 μL of the resulting stock solution was added to a 96-well, optical bottom plate. The plate was illuminated with an UV lamp (Sylvania 254 nm, 8 W) for 20 min, followed by the distribution of 50–50 μL of RPMI-1640 medium [supplemented with 10% (v/v %) FBS and 1% L-glutamine, 1% penicillin/streptomycin] into the wells. Then, the plate was incubated for 1 h. For the 3D microscopic imaging of the hydrogels, cells were treated with acridine orange (at 0.1 mM) and incubated for 30 min. Fluorescence measurements were carried out on a Zeiss Celldiscoverer 7 (Zeiss, Jena, Germany) using 10× magnification (Plan-Apochromat λ/0.35 NA objective with 2× tube lens) and acquisition of Z-stacks with 10 μm intervals between individual planes. The images were processed by using ZEN Blue 2.6 software (Carl Zeiss AG, Jena, Germany). Figure 4 (A) Viability of the A2058 human melanoma cell line in native EAK-16-II and caged peptide hydrogels as well as in monolayer (2D) after 96 h. Cell viability was measured using CellTiterGlo assay (Promega, Madison, WI, USA) and normalized to 2D growing cells (control cells) (normalized live cells = 100%). Data are presented as mean values ± standard deviation (SD) from three independent experiments. (B) 3D representation of cellular arrangements in both types of hydrogels. […]

[4] = cited from earlier work
Protocol: These turbidity measurements were conducted at a 300 μM concentration, which was also used for in vitro experiments.

[5] = Solubility and handling (observation during purification, spectroscopic measurement); format: physicochemical; conditions: aqueous / PBS, qualitative
Protocol: To support this change in “behavior” of the caged derivative, spectroscopic (transmittance) measurements were conducted, which confirmed the suppressed aggregation compared to the nonprotected peptide (Figure 1).
Therefore, its purification and characterization could be carried out in the usual way as for peptides (e.g., RP-HPLC and LC–MS).

O=C(O)Cc1ccc(O)cc1 [HPAA, p-hydroxyphenylacetic acid]
In vitro cytotoxicity, monolayer (2D) ([1]; A2058 cells in 2D (plastic surface)): did not have any long-term toxic effect | In vitro cytotoxicity, in EAK16-II hydrogel (3D) ([1]; A2058 cells in EAK16-II (300 μM) hydrogel): did not have any long-term toxic effect

Ac-AEAEAKAKAEAEAKAK-NH2 [EAK16-II]
Time to "microgelatinization" (sedimentation of peptide aggregates, increase in transmittance) [2]: Around 10 min | Cellular arrangement (cellular aggregate formation) in hydrogel [3]: distinct cellular aggregates | Critical aggregating concentration [4]: 0.1 mg/mL

CC(=O)N[C@@H](C)C(=O)N[C@@H](CCC(=O)O)C(=O)N[C@@H](C)C(=O)N[C@@H](CCC(=O)O)C(=O)N[C@@H](C)C(=O)N[C@@H](CCCCNC(=O)OCC(=O)c1ccc(O)cc1)C(=O)N[C@@H](C)C(=O)N[C@@H](CCCCN)C(=O)N[C@@H](C)C(=O)N[C@@H](CCC(=O)O)C(=O)N[C@@H](C)C(=O)N[C@@H](CCC(=O)O)C(=O)N[C@@H](C)C(=O)N[C@@H](CCCCNC(=O)OCC(=O)c1ccc(O)cc1)C(=O)N[C@@H](C)C(=O)N[C@@H](CCCCN)C(N)=O [caged-EAK16-II] (Ac-AEAEAK(X1)AKAEAEAK(X1)AK-NH2)
Solubility [5]: good solubility
